Test results as given in US20130259929A1, “USE OF A PHOSPHOPEPTIDE ABLE TO BLOCK HER3/P85 INTERACTION FOR THE TREATMENT OF HER2 HYPER-EXPRESSING TUMOURS” (priority 2010, published 2013).
Non-standard residues stand in square brackets, D forms with d. No end group written: not given here. pY = N[C@@H](Cc1ccc(OP(=O)(O)O)cc1)C(=O)O

Tests used:
[1] = biological target: T1, HER3 binding to GST-N-SH2p85 fusion protein (Homo sapiens, UniProt P27986); test: GST pull-down; details: lysates of BT474, MCF7 and MDA-MB-453 cells, in vitro (FIG. 2A, FIG. 3)
T1 construct: containing SH2 domains in N-terminal portion of p85 sub-unit
T1 sequence (P27986 333-428 limits assumed): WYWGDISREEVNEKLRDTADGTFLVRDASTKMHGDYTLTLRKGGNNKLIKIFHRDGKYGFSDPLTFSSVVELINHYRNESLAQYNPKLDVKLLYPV
Method: GST pull-down. MCF-7, BT474 and MDA-MB-453 cell lines have been washed 2 times with cold PBS and extracted with lysis buffer [(50 mM Tris HCl (pH 7.4), 250 mM NaCl, 0,1% Triton X-100, 5 mM EDTA, 50 mM NaF, 1 mM PMSF, 5 mM Na3VO4 and 50 mmol/L of protease inhibitors (Roche, Milano, IT)]. After 20 minute ice-cold incubation, the lysates have been clarified by centrifugation at 14000 rpm for 20 minutes. The cellular extracts (1 mg sample) have been incubated for 4 hours at 4° C. in the presence of GST bound gluthatione-agarose beads or GST-p85 fusion protein (kindly supplied by doctor S. Giordano), in the presence or absence of 1257 phosphopeptide or scr peptide used as control. Then the interaction complexes have been washed six times with lysis buffer and subsequently beads eluted using Laemli Buffer 2× [(140 mM SDS, 432 mM Glycerol, 1.6 mM Bromophenol blue, 120 mM Tris HCl (pH 6.8), 8% β-mercaptoethanol)]. The proteins have been separated using 8% SDS-PAGE and transferred on nitrocellulose filter. The filter has been then immunodecorated with anti ErbB3 antibody.
As in FIG. 2A is apparent that 1257 phosphopeptide effectively in vitro binds p85 sub-unit thus inhibiting HER3 receptor binding.

BT474 cells = test: Soft agar anchorage-independent growth; format: cell-based, human; details: compared to parental or scr peptide transfected cells
Method: (§1) Soft agar. […] Briefly cells (1×10^4) have been re-suspended in 5 ml of 0.3% agar in RPMI or DMEM supplemented with 10% FCS, and quickly stained on a solid layer of 1.2% agar in DMEM/RPMI. Cultures have been carried out for 4 weeks. Then colonies have been stained with viable colony specific neutral red solution (Sigma, Milan, IT), and then counted. Photographies have been taken using Leica DM IRE2 microscope and Leica FW4000 software (Leica Microsystems, Milan, IT).
(§2) Then it has been attempted to understand whether the peptide is suitable to reduce the cell ability to grow under anchorage-independence conditions.

MCF7 cells = test: Soft agar anchorage-independent growth; format: cell-based, human; details: compared to parental or scr peptide transfected cells
Method: as §1, §2

MCF7/Luc cells = test: In vivo growth of peptide-transfected MCF7/Luc cells inoculated s.c.; set-up: species or system SCID mice
Method: (§3) Xeno-grafts. In vivo tests have been carried out using 40 day old SCID female mice (Harlan Laboratories, Milan, IT). At day 0, animals have been totally anesthetized with intramuscular injection of 400 μg/animal (average weight 25 g) of Zoletil (Virbac) containing 0.12% Xylor (Xylazine), and transplanted subcutaneously (s.c.), in intrascapular mouse region with pellet of […] (1.7 mg/sustained release pellet over 60 days, Innovative Research of America, Sarasota, Fla.). On the next day, 5×10^6 proliferating and scr and 1257 peptide previously transfected, as above described, MCF7 or BT474 cells, have been re-suspended in 0.1 ml of Matrigel (BD Biosciences) and subcutaneously inoculated in each mouse. […] Tumour growth has been monitored two times weekly using calibration along two orthogonal axes: length (L) and […]. The tumour volume (V) has been calculated using the formula V=L*(W2)/2. All the procedures relating to animals and treatment thereof have been carried out according institutional guidelines.
Generation of mammary tumour luminescent cells. Mammary tumour MCF7 cell lines stably transfected using pGL4.51 (luc2/CMV/Neo) expression vector, produced by Promega (Me, IT), have been transfected using scr or 1257 phosphopeptide ([…]×5×10^4 cells/mouse) and after 30 h subcutaneously inoculated in SCID mice (5×10^6 cells/mouse) in 200 μl (1:1 Matrigel: cell suspension in serum free medium). Mice have been in vivo imaged 20′ after inoculation and once weekly over 11 weeks. The animals have been anesthetized, as above reported, and subjected to intraperitoneal injection with 200 μl of luciferin (Caliper, Mi, IT); 10′ after incubation photon emission has been analyzed at 3′ minute exposure using Xenogen Ivis Lumina 2 machine. Growth of these cells has been monitored as reported in xenografts section.
Then it has been verified whether 1257 phosphopeptide was effective also in vivo. To this purpose immunocompromised SCID mice have been used. In the presence of oestrogen tablets, 5×10^6 control cells transfected with scr peptide or transfected with 1257 peptide have been injected subcutaneously between mouse scapulae. In order to verify the viability of phosphopeptide transfected cells in animals we have generated a stable luciferase gene expressing MCF7 cell line (MCF7/Luc).

MCF7 xenograft = test: Electroporation tumour therapy of MCF7 xenografts; format: in vivo, SCID mice
Method: as §3
Electroporation tumour therapy. […] A dilute solution of 1257 peptide (75 ug) in 15 ul of sterile PBS has been directly injected in each xenograft, which subsequently has been electrode pulsed. PBS diluted scr peptide has been used as control, according to same procedure. As a further control we have analyzed two groups of not peptide injected animals, except that one of two was subjected to electroporation. Therapy has been repeated once weekly, and tumour size monitored up to 70 days.
Tumour size has been measured at regular intervals (alternate days) using a caliber and tumour volume has been calculated as above described. In order to minimize animal pain during the electroporation, tests have been carried out under total anesthesia. All the procedures concerning animals and treatment thereof have been carried out according to institutional guidelines.
In an attempt to use an experimental approach mimicking human therapy, scr or 1257 phosphopeptides has been administered directly into tumour. The administration of the peptide has been carried out by injection and successive electroporation in order to allow the phosphopeptide penetration. This technique facilitating the drug absorption from the tumour is used for human mainly to treat superficial lesions like melanomas, skin tumours or cutaneous metastases, but currently it is also used for carcinomas during pre-operation sessions. The peptide administration has been carried out when the tumour volume was 200 mm^3.

BT474 xenograft = test: Electroporation tumour therapy of BT474 xenografts; format: in vivo, SCID mice; details: Herceptin i.p. (FIG. 11A)
Method: Xeno-grafts. In vivo tests have been carried out using 40 day old SCID female mice (Harlan Laboratories, Milan, IT). At day 0, animals have been totally anesthetized with intramuscular injection of 400 μg/animal (average weight 25 g) of Zoletil (Virbac) containing 0.12% Xylor (Xylazine), and transplanted subcutaneously (s.c.), in intrascapular mouse region with pellet of 17-h-extradiol (1.7 mg/sustained release pellet over 60 days, Innovative Research of America, Sarasota, Fla.). […] Tumour growth has been monitored two times weekly using calibration along two orthogonal axes: length (L) and depth (VV). The tumour volume (V) has been calculated using the formula V=L*(W2)/2.
Electroporation tumour therapy. […] Therapy has been repeated once weekly, and tumour size monitored up to 70 days.

[2] = s.c. inoculation of transfected MCF7 cells, up to 16th week
[3] = intra-tumour injection + electroporation once weekly, MCF7

Question: For “RDGGGPGGDpYAAMGACPA (RDGGGPGGD[pY]AAMGACPA; listed as Homo sapiens) [1257 phosphopeptide]”, which “inhibition of HER3 and p85 SH2 domain binding” value [1] is on record?
Answer: The value was “inhibits in specific way HER3 and p85 SH2 domain binding”.

Question: And the “reduction of colony number” value (BT474 cells)?
Answer: Its value is “up to 80%”.

Question: What about the “reduction of colony number” value (MCF7 cells) of the same substance?
Answer: Its value is “up to 80%”.

Question: What about the “luminescence of transplanted cells over the time” value (MCF7/Luc cells; bioluminescence imaging weekly (FIG. 7A)) of the same substance?
Answer: Its value is “progressively decreases”.

Question: What about the “time after inoculation at which tumours were calibratable” value (MCF7/Luc cells; s.c. inoculation of transfected MCF7 cells) of the same substance?
Answer: The value was “about 10 week”.

Question: And the “animals that displayed tumour” value (MCF7/Luc cells; [2])?
Answer: Its value is “One out of five”.

Question: What about the “reduction of tumour take” value (MCF7/Luc cells; [2]) of the same substance?
Answer: The value was 80%.

Question: What about the “apoptosis in tumours (TUNNEL assay)” value (MCF7 xenograft; immunohistochemistry of electroporation treated tumours (FIG. 9A)) of the same substance?
Answer: Its value is “go in apoptosis”.

Question: And the “proliferation in tumours (Ki67 assay)” value (MCF7 xenograft; immunohistochemistry of electroporation treated tumours (FIG. 9B))?
Answer: The value was “low proliferating index”.

Question: And the “inhibition of tumour growth compared to control not treated tumours” value (MCF7 xenograft; [3])?
Answer: The value was 58%.

Question: What about the “inhibition of tumour growth compared to scr peptide inoculated tumours” value (MCF7 xenograft; [3]) of the same substance?
Answer: Its value is 50%.

Question: What about the “tumour mass compared to not treated control” value (BT474 xenograft) of the same substance?
Answer: Its value is “strongly reduces the tumour mass”.
